Tests used:
Set-up in all cases: species or system rat (male Sprague-Dawley)
5-HT1A receptors [1] = biological target: T1, 5-HT1A receptors (Rattus norvegicus, UniProt P19327); assay: in vitro binding: inhibition of 3H-8-OH-DPAT binding to synaptosomal membranes from rat cerebral cortex; conditions: 3H-8-OH-DPAT 2 nM, 37° C., 10 min, pH 7.4
T1 construct: from tissue; host or cells: cerebral cortex (crude synaptosomal membranes) of male Sprague-Dawley rats
T1 sequence (P19327 1-422): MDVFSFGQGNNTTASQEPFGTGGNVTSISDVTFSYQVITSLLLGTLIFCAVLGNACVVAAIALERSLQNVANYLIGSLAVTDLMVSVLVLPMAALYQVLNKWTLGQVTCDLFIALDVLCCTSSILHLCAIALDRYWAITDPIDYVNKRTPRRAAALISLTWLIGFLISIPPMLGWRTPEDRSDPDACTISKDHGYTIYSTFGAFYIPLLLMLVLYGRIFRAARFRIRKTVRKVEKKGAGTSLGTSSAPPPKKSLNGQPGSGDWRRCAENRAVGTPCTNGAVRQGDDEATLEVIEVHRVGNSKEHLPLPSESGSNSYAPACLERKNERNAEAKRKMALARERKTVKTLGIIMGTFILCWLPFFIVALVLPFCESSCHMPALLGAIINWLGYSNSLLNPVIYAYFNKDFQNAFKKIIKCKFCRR
From the text: Sites specifically labeled by tritiated 8-hydroxy-2-dipropylamino-1,2,3,4-tetrahydronaphthalene (^3 H-8-OH-DPAT) have been identified as 5-HT1A receptors. This general procedure is set forth in Wong et al., J. Neural Transm. 71:207-218 (1988).
Male Sprague-Dawley rats (110-150 g) from Harlan Industries (Cumberland, Ind.) were fed a Purina Chow ad libitum for at least 3 days before being used in the studies. Rats were killed by decapitation. The brains were rapidly removed, and the cerebral cortices were dissected out at 4° C.
Brain tissues were homogenized in 0.32M sucrose. After centrifugation at 1000×g for 10 min and then at 17000×g for 20 min, a crude synaptosomal fraction was sedimented. The pellet was suspended in 100 vol of 50 mM Tris-HCl, pH 7.4, incubated at 37° C. for 10 min, and centrifuged at 50000×g for 10 min. The process was repeated and the final pellet was suspended in ice-chilled 50 mM Tris-HCl, pH 7.4.
Binding of ^3 H-8-OH-DPAT was performed according to the previously described method [Wong et al., J. Neural Transm. 64:251-269 (1985)]. Briefly, synaptosomal membranes isolated from cerebral cortex were incubated at 37° C. for 10 min. in 2 ml of 50 mM Tris-HCl, pH 7.4; 10 mM pargyline; 0.6 mM ascorbic acid; 5 mM CaCl2; 2 nM ^3 H-8-OH-DPAT and 0.1 to 1000 nm of the compound of interest. Binding was terminated by filtering samples under reduced pressure through glass fiber (GFB) filters. The filters were washed twice with 5 ml of ice cold buffer and placed in scintillation vials with 10 ml of PCS (Amersham/Searle) scintillation fluid. Radioactivity was measured with a liquid scintillation spectrometer. Unlabeled 8-OH-DPAT at 10 μM was also included in separate samples to establish non-specific binding. Specific binding of ^3 H-8-OH-DPAT is defined as the difference of radioactivity bound in the absence and in the presence of 10 μM unlabeled 8-OH-DPAT.
(§1) The results provided in columns 3-5 are indicative of 5-HT1A agonist activity.

5-HT1A receptors [2] = biological target: T1, 5-HT1A receptors; assay: in vivo lowering of brain 5-HIAA levels (5-HT1A agonist activity); conditions: one hour after treatment
Procedure: (§2) Compounds of this invention were also examined for their in vivo effects on brain 5-HIAA and serum corticosterone levels. Male Sprague-Dawley rats weighting 150-200 g were administered subcutaneously or orally with aqueous solutions of the test compound. One hour after treatment, the rats were decapitated and trunk blood collected. The blood was allowed to clot and then was centrifuged to separate the serum. The concentration of corticosterone in the serum was determined by the spectrofluorometric method of Solem, J. H.; Brinck-Johnsen, T., Scand. J. Clin. Invest. [Suppl. 80], 17, 1 (1965). The whole brains from the decapitated rats were quickly removed, frozen on dry ice, and stored at -15° C. 5-HIAA concentrations were measured by liquid chromatography with electrochemical detection as described by Fuller, R. W.; Snoddy, H. D.; Perry, K. W., Life Sci. 40, 1921 (1987).
as §1

5-HT1A receptors [3] = biological target: T1, 5-HT1A receptors; assay: in vivo elevation of serum corticosterone levels (5-HT1A agonist activity); conditions: sc, one hour after treatment
Procedure: as §2, §1

| SMILES | IC50 (5-HT1A receptors [1]) [nM] | 5-HIAA MED (minimum effective dose lowering brain 5-HIAA levels) (5-HT1A receptors [2]; po) [mg/kg] | 5-HIAA MED (minimum effective dose lowering brain 5-HIAA levels) (5-HT1A receptors [2]; sc) [mg/kg] | Corticosterone MED (minimum effective dose elevating serum corticosterone levels) (5-HT1A receptors [3]) [mg/kg] |
| --- | --- | --- | --- | --- |
| CCCN(CCC)C1CCc2cccc(-c3ccon3)c2C1 (stereo not shown) [Example 25] | 1.4 | 10 | 0.3 | 0.3 |
| CCCN(CCC)C1CCc2cccc(-c3cc[nH]n3)c2C1 (stereo not shown) [Example 33, 2-Di-n-propylamino-8-(pyrazol-3-yl)-1,2,3,4-tetrahydronaphthalene] | 4.9 | – | > 1.0 | > 1.0 |
| CCCN(CCC)C1CCc2cccc(-c3noc4ccccc34)c2C1 (stereo not shown) [Example 17, 2-Di-n-propylamino-8-(indoxazin-3-yl)-1,2,3,4-tetrahydronaphthalene] | 5 | – | > 1.0 | > 1.0 |

Reference: patent US5571942A, “Ring-substituted 2-amino-1,2,3,4-tetrahydronaphthalenes and 3-aminochromanes” (Eli Lilly and Company, priority 1995, dated 1996)
